# Calls of active or inactive are those of the source. No cut-off for these calls is given here.
# Experiments:
# Homo sapiens [1] = organism: Homo sapiens; experiment: Selectivity for GSK3 (unknown origin) over JNK2 (unknown origin)
# [2] = molecular target: T1, Glycogen synthase kinase-3 beta (Homo sapiens, UniProt P49841); experiment: Inhibition of GSK-3beta (unknown origin) at 300 nM relative to control
# Target sequence in this assay (P49841 whole entry, looked up): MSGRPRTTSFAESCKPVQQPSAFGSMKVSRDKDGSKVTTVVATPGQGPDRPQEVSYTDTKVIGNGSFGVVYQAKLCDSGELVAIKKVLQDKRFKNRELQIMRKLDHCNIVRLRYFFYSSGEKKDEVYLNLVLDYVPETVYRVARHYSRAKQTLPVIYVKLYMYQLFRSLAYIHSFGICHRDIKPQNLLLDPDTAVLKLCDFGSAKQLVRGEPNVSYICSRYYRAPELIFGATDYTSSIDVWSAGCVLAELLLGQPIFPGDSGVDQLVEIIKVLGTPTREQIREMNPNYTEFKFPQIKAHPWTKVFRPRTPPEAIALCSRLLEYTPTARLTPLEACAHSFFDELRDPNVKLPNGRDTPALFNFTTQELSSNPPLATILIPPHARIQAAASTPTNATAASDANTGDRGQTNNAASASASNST
# Mus musculus = experiment: Cognitive enhancing effect in ICR mouse model of scopolamine-induced memory impairment assessed as improvement in trajectories to platform at 15 mg/kg, po administered 30 mins prior to scopolamine injection by Morris water maze test; format: functional, organism-based
# [3] = molecular target: T2, Dual specificity tyrosine-phosphorylation-regulated kinase 1A (Homo sapiens, UniProt Q13627); experiment: Inhibition of DYRK1alpha (unknown origin)
# [4] = molecular target: T3, Dual specificity tyrosine-phosphorylation-regulated kinase 1B (Homo sapiens, UniProt Q9Y463); experiment: Inhibition of DYRK1beta (unknown origin)
# Target sequence in this assay (Q9Y463 whole entry): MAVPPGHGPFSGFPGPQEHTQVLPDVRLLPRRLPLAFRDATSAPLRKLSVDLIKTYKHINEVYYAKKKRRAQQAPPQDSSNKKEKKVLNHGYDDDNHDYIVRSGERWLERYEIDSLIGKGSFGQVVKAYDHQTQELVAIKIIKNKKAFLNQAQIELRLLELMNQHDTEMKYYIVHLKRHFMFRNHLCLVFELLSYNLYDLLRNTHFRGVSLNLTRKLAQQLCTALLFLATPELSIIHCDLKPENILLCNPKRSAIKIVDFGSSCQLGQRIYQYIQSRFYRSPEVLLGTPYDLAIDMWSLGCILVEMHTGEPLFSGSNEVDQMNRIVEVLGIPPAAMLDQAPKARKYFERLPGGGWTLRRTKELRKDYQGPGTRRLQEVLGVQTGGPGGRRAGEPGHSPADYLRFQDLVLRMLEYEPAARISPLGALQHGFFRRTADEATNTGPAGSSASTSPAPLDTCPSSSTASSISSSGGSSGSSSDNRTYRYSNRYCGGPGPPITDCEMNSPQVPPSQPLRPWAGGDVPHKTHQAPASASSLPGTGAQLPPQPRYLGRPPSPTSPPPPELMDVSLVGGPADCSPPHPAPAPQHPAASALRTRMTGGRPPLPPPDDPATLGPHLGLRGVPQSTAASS
# N2a = experiment: Effect on tau protein expression in mouse N2a cells transfected with human tau protein at 5 to 15 uM incubated for 1 hr followed by okadaid-acid addition and measured after 5 hrs by Western blot analysis; format: functional, cell-based; details: dose 5-15 µM, time 6.0 hrs
# [5] = molecular target: Glycogen synthase kinase-3 beta (Mus musculus) (UniProt Q9WV60); experiment: Inhibition of GSK3beta in mouse N2a cells overexpressing human tau protein assessed as reduction in tau Ser396 residue phosphorylation at 5 uM incubated for 1 hr followed by okadaid-acid addition and measured after 5 hrs by Western blot analysis relative to control; format: cell-based; details: time 6.0 hrs
# Glycogen synthase kinase-3 beta (Mus musculus), sequence (Q9WV60 whole entry, looked up): as the sequence (P49841 whole entry, looked up) above, with T390P, T392A, A400T, T402A counted along it
# Homo sapiens [6] = organism: Homo sapiens; experiment: Selectivity for GSK3 (unknown origin) over MAPK p38 beta (unknown origin)
# [7] = molecular target: Mitogen-activated protein kinase 12 (Homo sapiens) (UniProt P53778); experiment: Inhibition of P38gamma (unknown origin) at 300 nM relative to control
# Mitogen-activated protein kinase 12 (Homo sapiens), sequence (P53778 whole entry): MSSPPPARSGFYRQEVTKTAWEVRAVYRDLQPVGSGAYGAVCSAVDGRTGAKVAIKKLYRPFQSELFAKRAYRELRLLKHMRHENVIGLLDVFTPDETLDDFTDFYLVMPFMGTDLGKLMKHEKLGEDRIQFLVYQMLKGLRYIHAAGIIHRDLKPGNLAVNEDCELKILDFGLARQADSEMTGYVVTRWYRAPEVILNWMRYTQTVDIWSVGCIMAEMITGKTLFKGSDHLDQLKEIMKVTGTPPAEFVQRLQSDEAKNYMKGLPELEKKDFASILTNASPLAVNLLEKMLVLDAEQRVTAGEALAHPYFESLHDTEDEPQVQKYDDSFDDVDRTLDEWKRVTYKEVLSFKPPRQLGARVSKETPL
# [8] = molecular target: Cyclin-dependent kinase 2 (Homo sapiens) (UniProt P24941); experiment: Inhibition of CDK2 (unknown origin) at 300 nM relative to control
# Homo sapiens [9] = organism: Homo sapiens; experiment: Selectivity for GSK3 (unknown origin) over MAPK p38 gamma (unknown origin)
# in vitro = details: PAMPA
# Description: Effective permeability of compound at 100 ug/ml incubated for 20 hrs by PAMPA-BBB assay
# [10] = molecular target: Glycogen synthase kinase-3 beta (Mus musculus) (UniProt Q9WV60); experiment: Inhibition of GSK3beta in mouse N2a cells overexpressing human tau protein assessed as phosphorylated tau Ser396 residue level at 15 uM incubated for 1 hr followed by okadaid-acid addition and measured after 5 hrs by Western blot analysis relative to control; format: cell-based; design: scale not given: the % may be the effect or the level left; details: time 6.0 hrs
# Acetylcholinesterase = Acetylcholinesterase (Homo sapiens, UniProt P22303); experiment: Inhibition of human AChE using acetylthiocholine iodide as substrate preincubated with enzyme for 1 min followed by substrate addition and measured after 10 mins by Ellman's method
# Acetylcholinesterase, sequence (P22303 whole entry): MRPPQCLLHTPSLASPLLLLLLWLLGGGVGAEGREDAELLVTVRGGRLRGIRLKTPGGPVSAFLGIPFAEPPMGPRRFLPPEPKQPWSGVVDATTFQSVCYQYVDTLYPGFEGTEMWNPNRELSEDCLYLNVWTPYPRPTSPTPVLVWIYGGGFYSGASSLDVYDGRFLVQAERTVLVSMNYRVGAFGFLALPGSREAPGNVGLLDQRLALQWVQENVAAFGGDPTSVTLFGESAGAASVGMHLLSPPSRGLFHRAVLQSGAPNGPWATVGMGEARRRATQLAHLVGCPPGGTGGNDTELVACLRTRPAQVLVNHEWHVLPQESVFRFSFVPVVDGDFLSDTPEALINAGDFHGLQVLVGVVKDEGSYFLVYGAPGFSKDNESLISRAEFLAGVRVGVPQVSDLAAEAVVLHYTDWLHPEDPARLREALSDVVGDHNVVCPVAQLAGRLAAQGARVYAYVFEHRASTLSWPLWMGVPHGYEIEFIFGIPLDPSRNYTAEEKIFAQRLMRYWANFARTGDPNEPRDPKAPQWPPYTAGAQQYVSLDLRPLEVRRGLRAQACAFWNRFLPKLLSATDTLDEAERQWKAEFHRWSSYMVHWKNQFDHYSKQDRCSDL
# Homo sapiens [11] = organism: Homo sapiens; experiment: Selectivity for GSK3 (unknown origin) over MAPK p38 delta (unknown origin)
# [12] = molecular target: Mitogen-activated protein kinase 10 (Homo sapiens) (UniProt P53779); experiment: Inhibition of JNK3 (unknown origin) at 300 nM relative to control
# Mitogen-activated protein kinase 10 (Homo sapiens), sequence (P53779 whole entry): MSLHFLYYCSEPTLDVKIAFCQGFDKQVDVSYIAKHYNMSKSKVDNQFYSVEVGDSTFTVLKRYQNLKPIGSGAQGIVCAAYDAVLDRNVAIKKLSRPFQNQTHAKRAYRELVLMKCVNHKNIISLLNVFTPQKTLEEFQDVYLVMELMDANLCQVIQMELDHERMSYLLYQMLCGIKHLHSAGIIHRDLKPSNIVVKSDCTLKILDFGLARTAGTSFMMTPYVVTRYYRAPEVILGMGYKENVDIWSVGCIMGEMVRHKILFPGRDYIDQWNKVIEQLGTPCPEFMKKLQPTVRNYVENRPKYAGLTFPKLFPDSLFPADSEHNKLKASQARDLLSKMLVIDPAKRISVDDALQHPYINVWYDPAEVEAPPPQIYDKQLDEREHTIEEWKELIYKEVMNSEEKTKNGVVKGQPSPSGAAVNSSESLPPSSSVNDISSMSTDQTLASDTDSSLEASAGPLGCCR
# [13] = molecular target: Cyclin-dependent kinase 4 (Homo sapiens) (UniProt P11802); experiment: Inhibition of CDK4 (unknown origin) at 300 nM relative to control
# Homo sapiens [14] = organism: Homo sapiens; experiment: Selectivity for GSK3 (unknown origin) over ERK2 (unknown origin)
# [15] = molecular target: Mitogen-activated protein kinase 1 (Homo sapiens) (UniProt P28482); experiment: Inhibition of ERK2 (unknown origin) at 300 nM relative to control
# Mitogen-activated protein kinase 1 (Homo sapiens), sequence (P28482 whole entry): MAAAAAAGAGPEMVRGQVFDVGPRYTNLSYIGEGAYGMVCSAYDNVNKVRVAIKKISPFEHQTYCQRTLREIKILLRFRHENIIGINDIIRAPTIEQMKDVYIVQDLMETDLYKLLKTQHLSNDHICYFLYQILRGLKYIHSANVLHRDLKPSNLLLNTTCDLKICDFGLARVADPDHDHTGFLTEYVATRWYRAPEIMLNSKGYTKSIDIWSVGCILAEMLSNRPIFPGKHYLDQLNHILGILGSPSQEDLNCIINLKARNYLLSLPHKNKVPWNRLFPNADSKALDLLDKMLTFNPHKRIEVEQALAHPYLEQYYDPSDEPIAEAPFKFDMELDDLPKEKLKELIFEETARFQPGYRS
# Cholinesterase = Cholinesterase (Homo sapiens, UniProt P06276); experiment: Inhibition of human BuChE using butyrylthiocholine iodide as substrate preincubated with enzyme for 1 min followed by substrate addition and measured after 10 mins by Ellman's method
# [16] = molecular target: Glycogen synthase kinase-3 alpha (Homo sapiens) (UniProt P49840); experiment: Inhibition of GSK-3alpha (unknown origin) at 300 nM relative to control
# Glycogen synthase kinase-3 alpha (Homo sapiens), sequence (P49840 2-483 limits assumed): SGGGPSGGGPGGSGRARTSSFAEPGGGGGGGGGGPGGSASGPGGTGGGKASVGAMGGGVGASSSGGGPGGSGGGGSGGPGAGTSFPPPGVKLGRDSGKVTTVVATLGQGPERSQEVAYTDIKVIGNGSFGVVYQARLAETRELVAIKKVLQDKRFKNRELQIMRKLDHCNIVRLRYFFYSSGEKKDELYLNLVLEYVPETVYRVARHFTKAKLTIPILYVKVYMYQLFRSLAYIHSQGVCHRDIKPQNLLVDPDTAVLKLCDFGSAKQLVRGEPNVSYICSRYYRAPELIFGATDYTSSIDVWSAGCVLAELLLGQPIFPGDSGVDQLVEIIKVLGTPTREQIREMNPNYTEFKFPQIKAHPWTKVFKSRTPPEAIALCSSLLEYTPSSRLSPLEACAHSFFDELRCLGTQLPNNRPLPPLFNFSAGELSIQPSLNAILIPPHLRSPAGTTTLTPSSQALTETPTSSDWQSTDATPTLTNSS
# Homo sapiens [17] = organism: Homo sapiens; experiment: Selectivity for GSK3 (unknown origin) over CDK2 (unknown origin)
# Homo sapiens [18] = organism: Homo sapiens; experiment: Selectivity for GSK3 (unknown origin) over CDK4 (unknown origin)
# Homo sapiens [19] = organism: Homo sapiens; experiment: Selectivity for GSK3 (unknown origin) over CDK7 (unknown origin)
# [20] = molecular target: T1, Glycogen synthase kinase-3 beta; experiment: biochemical
# Target sequence in this assay (P49841 whole entry): as the sequence (P49841 whole entry, looked up) above
# Description: Inhibition of recombinant human N-terminal His6-tagged GSK-3beta H350L mutant expressed in baculovirus infected Sf21 cells using GSM as substrate incubated for 30 mins in presence of ATP by kinase-glo luminescence assay
# [21] = molecular target: Mitogen-activated protein kinase 14 (Homo sapiens) (UniProt Q16539); experiment: Inhibition of P38alpha (unknown origin) at 300 nM relative to control
# [22] = Effect on swimming speed in ICR mouse model of scopolamine-induced memory impairment at 15 mg/kg, po administered 30 mins prior to scopolamine injection by Morris water maze test; format: ADME, organism-based; details: in vivo, 0.5 h
# Homo sapiens [23] = organism: Homo sapiens; experiment: Selectivity for GSK3 (unknown origin) over CDK9 (unknown origin)
# [24] = molecular target: Mitogen-activated protein kinase 9 (Homo sapiens) (UniProt P45984); experiment: Inhibition of JNK2 (unknown origin) at 300 nM relative to control
# Mitogen-activated protein kinase 9 (Homo sapiens), sequence (P45984 whole entry, looked up): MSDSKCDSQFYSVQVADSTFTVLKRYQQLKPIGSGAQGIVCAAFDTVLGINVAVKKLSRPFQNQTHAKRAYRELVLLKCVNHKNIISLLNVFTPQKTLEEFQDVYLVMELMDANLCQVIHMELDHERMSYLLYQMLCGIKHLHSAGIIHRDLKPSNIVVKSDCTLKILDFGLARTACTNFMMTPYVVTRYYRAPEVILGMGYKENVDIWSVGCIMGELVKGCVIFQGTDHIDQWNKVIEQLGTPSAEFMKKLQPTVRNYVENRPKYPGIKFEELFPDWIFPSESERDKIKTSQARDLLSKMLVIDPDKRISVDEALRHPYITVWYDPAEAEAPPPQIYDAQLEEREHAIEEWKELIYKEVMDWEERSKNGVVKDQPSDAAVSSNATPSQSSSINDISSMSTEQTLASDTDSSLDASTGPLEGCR
# BV-2 = experiment: Inhibition of LPS-induced ROS production in mouse BV-2 cells at 5 uM incubated for 1 hr followed by LPS stimulation and measured after 24 hrs by DCFH-DA staining based inverted fluorescence microscopic analysis; format: functional, cell-based; details: time 25.0 hrs
# Homo sapiens [25] = organism: Homo sapiens; experiment: Selectivity for GSK3 (unknown origin) over ERK1 (unknown origin)
# Homo sapiens [26] = organism: Homo sapiens; experiment: Selectivity for GSK3 (unknown origin) over JNK3 (unknown origin)
# Homo sapiens [27] = organism: Homo sapiens; experiment: Selectivity for GSK3 (unknown origin) over CDK1 (unknown origin)
# [28] = Effect on cell morphology in LPS-treated mouse BV-2 cells at 5 uM pretreated for 1 hr followed by incubation with LPS for 24 hrs by fluorescence microscopic analysis; format: ADME; details: bv-2, 25 h
# Homo sapiens [29] = organism: Homo sapiens; experiment: Selectivity for GSK3 (unknown origin) over MAPK p38 alpha (unknown origin)
# [30] = molecular target: Glycogen synthase kinase-3 beta (Mus musculus) (UniProt Q9WV60); experiment: Inhibition of GSK3beta in mouse N2a cells overexpressing human tau protein assessed as phosphorylated tau Ser396 residue level at 10 uM incubated for 1 hr followed by okadaid-acid addition and measured after 5 hrs by Western blot analysis relative to control; format: cell-based; design: scale not given: the % may be the effect or the level left; details: time 6.0 hrs
# [31] = molecular target: Mitogen-activated protein kinase 3 (Homo sapiens) (UniProt P27361); experiment: Inhibition of ERK1 (unknown origin) at 300 nM relative to control
# Mitogen-activated protein kinase 3 (Homo sapiens), sequence (P27361 whole entry): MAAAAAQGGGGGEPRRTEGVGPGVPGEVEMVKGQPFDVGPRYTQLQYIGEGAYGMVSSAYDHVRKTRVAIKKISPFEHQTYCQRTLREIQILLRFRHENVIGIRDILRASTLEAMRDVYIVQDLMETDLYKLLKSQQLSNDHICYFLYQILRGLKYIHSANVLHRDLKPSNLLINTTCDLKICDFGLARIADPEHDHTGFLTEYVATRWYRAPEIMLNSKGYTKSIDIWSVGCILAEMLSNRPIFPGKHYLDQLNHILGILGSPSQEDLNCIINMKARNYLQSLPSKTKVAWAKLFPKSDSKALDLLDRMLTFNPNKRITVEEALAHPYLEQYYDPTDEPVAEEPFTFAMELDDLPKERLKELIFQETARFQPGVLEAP
# Homo sapiens [32] = organism: Homo sapiens; experiment: Selectivity for GSK3 (unknown origin) over CDK6 (unknown origin)
# [33] = molecular target: T3, Dual specificity tyrosine-phosphorylation-regulated kinase 1B; experiment: Inhibition of DYRK1beta (unknown origin) at 300 nM relative to control
# Target sequence in this assay (Q9Y463 whole entry, looked up): as the sequence (Q9Y463 whole entry) above
# [34] = molecular target: T2, Dual specificity tyrosine-phosphorylation-regulated kinase 1A; experiment: Inhibition of DYRK1alpha (unknown origin) at 300 nM relative to control
# [35] = molecular target: Mitogen-activated protein kinase 13 (Homo sapiens) (UniProt O15264); experiment: Inhibition of P38delta (unknown origin) at 300 nM relative to control
structure (smiles),measurement,setting,value
CNC(=O)c1sc(-c2ccnc(NC(=O)CNCCNc3c4c(nc5ccccc35)CCCC4)c2)nc1OCC1CC1,Selectivity ratio,Homo sapiens [1],100
same,inhibition,[2],86.3%
same,Activity,Mus musculus,Active
same,IC50,[3],28.3 nM
same,IC50,[4],120 nM
same,Activity,N2a,inactive
same,inhibition,[5],49%
same,Selectivity ratio,Homo sapiens [6],100
same,inhibition,[7],7.64%
same,inhibition,[8],3.8%
same,Selectivity ratio,Homo sapiens [9],100
same,"Papp at 20 h, 100 ug/ml",in vitro,6.9 ×10⁻⁶ cm/s
same,Activity,[10],17%
same,IC50,Acetylcholinesterase,1.2 nM
same,Selectivity ratio,Homo sapiens [11],100
same,inhibition,[12],16.7%
same,inhibition,[13],3.07%
same,Selectivity ratio,Homo sapiens [14],100
same,inhibition,[15],9.78%
same,IC50,Cholinesterase,150 nM
same,inhibition,[16],91.1%
same,Selectivity ratio,Homo sapiens [17],100
same,Selectivity ratio,Homo sapiens [18],100
same,Selectivity ratio,Homo sapiens [19],100
same,IC50,[20],22 nM
same,inhibition,[21],5.21%
same,Activity,[22],Non-Toxic
same,Selectivity ratio,Homo sapiens [23],100
same,inhibition,[24],29.8%
same,inhibition,BV-2,Active
same,Selectivity ratio,Homo sapiens [25],100
same,Selectivity ratio,Homo sapiens [26],100
same,Selectivity ratio,Homo sapiens [27],100
same,Activity,[28],Non-Toxic
same,Selectivity ratio,Homo sapiens [29],100
same,Activity,[30],25.8%
same,inhibition,[31],13.1%
same,Selectivity ratio,Homo sapiens [32],100
same,inhibition,[33],67.9%
same,inhibition,[34],83.7%
same,inhibition,[35],20.6%
